Assay results taken from patent US20200370087A1, “METHOD FOR DETERMINING MICROBIAL SUSCEPTIBILITY TO ANTIBIOTIC AGENTS” (Ascilion AB, priority 2017, published 2020).
In brackets after ≈: the same amount, converted by molar mass. Each block holds one compound with its values, some of them ahead of it.

Assays:
[1] = tested on: Escherichia coli (ATCC 25922); assay: Glucose consumption susceptibility test, blood culture diluted in MHB with glucose (Example 1); type: cell-based; set-up: glucose concentration, t = 0 / glucose concentration, t = 60 / glucose concentration, t = 120 / glucose concentration, t = 180 / dC/dT (rate of change in glucose concentration) / glucose concentration, t = 240: unit not given here; settings: for F = the rate of change in glucose concentration in relation to the reference / dC/dT (rate of change in glucose concentration) / glucose concentration, t = 0 / glucose concentration, t = 60 / glucose concentration, t = 120 / glucose concentration, t = 180 / glucose concentration, t = 240: E. coli; for glucose concentration, t = 0: 0 minutes; for glucose concentration, t = 60: 60 minutes; for glucose concentration, t = 120: 120 minutes; for glucose concentration, t = 180: 180 minutes; for glucose concentration, t = 240: 240 minutes
Description: Strains of Escherichia coli (ATCC 25922), Enterococcus faecalis (ATCC 29212) and Staphylococcus aureus (ATCC 29213) were inoculated in blood culture bottles (SVA, Uppsala, Sweden) and cultivated according to the manufacturer's instructions until positive.
Medium from each blood culture bottle was diluted 1:100 with cation adjusted Mueller-Hinton broth (SVA, Uppsala, Sweden) supplemented with glucose to a concentration of 1.0 mg/mL.
Glucose concentrations were measured at 0, 60, 120, 180, and 240 minutes using a WaveSense Jazz glucometer (AgaMatrix, Inc., Salem, N.H., USA) with accompanying test strips.
Susceptibility scores corresponding to MIC values were calculated as described above. A 80% threshold was applied, i.e. the lowest concentration of antibiotic that entailed a rate of change in glucose concentration that was equal to or less than 80% of the reference was selected as the Minimal Inhibitory Concentration. The rate of change was calculated between the measurements at 60 and 180 minutes.

[2] = tested on: Escherichia coli ATCC 25922; settings: E.coli, cited from earlier work
[3] = tested on: Enterococcus faecalis ATCC 29212; settings: E.faecalis, cited from earlier work
[4] = range obtained by EUCAST from ISO 20776-1: 2006
[5] = reference value, Mueller-Hinton agar, incubation 18±2 h, N/A = not susceptible

- MIC ([1]; Escherichia coli, ATCC25922, E.coli, 80% threshold of reference rate of change, 60 to 180 minutes, N/A = not susceptible, no MIC value can be calculated, read-out: MIC, Measured): 4 µg/mL (≈ 9.36 µM)
SMILES: CO[C@@]1(NC(=O)Cc2cccs2)C(=O)N2C(C(=O)O)=C(COC(N)=O)CS[C@@H]21 [Cefoxitin, cefoxitin]
- F = the rate of change in glucose concentration in relation to the reference ([1]; antibiotic 0.25 μg/mL): 165%
- dC/dT (rate of change in glucose concentration) ([1]; antibiotic 0.25 μg/mL): 102
- glucose concentration, t = 0 ([1]; antibiotic 0.25 μg/mL): 145
- glucose concentration, t = 60 ([1]; antibiotic 0.25 μg/mL): 157
- glucose concentration, t = 120 ([1]; antibiotic 0.25 μg/mL): 143
- glucose concentration, t = 180 ([1]; antibiotic 0.25 μg/mL): 41
- F = the rate of change in glucose concentration in relation to the reference ([1]; antibiotic 0.5 μg/mL): 139%
- dC/dT (rate of change in glucose concentration) ([1]; antibiotic 0.5 μg/mL): 86
- glucose concentration, t = 0 ([1]; antibiotic 0.5 μg/mL): 139
- glucose concentration, t = 60 ([1]; antibiotic 0.5 μg/mL): 154
- glucose concentration, t = 120 ([1]; antibiotic 0.5 μg/mL): 140
- glucose concentration, t = 180 ([1]; antibiotic 0.5 μg/mL): 54
- F = the rate of change in glucose concentration in relation to the reference ([1]; antibiotic 1 μg/mL): 129%
- dC/dT (rate of change in glucose concentration) ([1]; antibiotic 1 μg/mL): 80
- glucose concentration, t = 0 ([1]; antibiotic 1 μg/mL): 144
- glucose concentration, t = 60 ([1]; antibiotic 1 μg/mL): 150
- glucose concentration, t = 120 ([1]; antibiotic 1 μg/mL): 143
- glucose concentration, t = 180 ([1]; antibiotic 1 μg/mL): 63
- F = the rate of change in glucose concentration in relation to the reference ([1]; antibiotic 2 μg/mL): 102%
- dC/dT (rate of change in glucose concentration) ([1]; antibiotic 2 μg/mL): 63
- glucose concentration, t = 0 ([1]; antibiotic 2 μg/mL): 143
- glucose concentration, t = 60 ([1]; antibiotic 2 μg/mL): 163
- glucose concentration, t = 120 ([1]; antibiotic 2 μg/mL): 138
- glucose concentration, t = 180 ([1]; antibiotic 2 μg/mL): 75
- F = the rate of change in glucose concentration in relation to the reference ([1]; antibiotic 4 μg/mL): 19%
- dC/dT (rate of change in glucose concentration) ([1]; antibiotic 4 μg/mL): 12
- glucose concentration, t = 0 ([1]; antibiotic 4 μg/mL): 146
- glucose concentration, t = 60 ([1]; antibiotic 4 μg/mL): 149
- glucose concentration, t = 120 ([1]; antibiotic 4 μg/mL): 140
- glucose concentration, t = 180 ([1]; antibiotic 4 μg/mL): 125
- glucose concentration, t = 240 ([1]; antibiotic 4 μg/mL): 116
- F = the rate of change in glucose concentration in relation to the reference ([1]; antibiotic 8 μg/mL): 18%
- dC/dT (rate of change in glucose concentration) ([1]; antibiotic 8 μg/mL): 11
- glucose concentration, t = 0 ([1]; antibiotic 8 μg/mL): 145
- glucose concentration, t = 60 ([1]; antibiotic 8 μg/mL): 164
- glucose concentration, t = 120 ([1]; antibiotic 8 μg/mL): 149
- glucose concentration, t = 180 ([1]; antibiotic 8 μg/mL): 132
- glucose concentration, t = 240 ([1]; antibiotic 8 μg/mL): 127
- F = the rate of change in glucose concentration in relation to the reference ([1]; antibiotic 16 μg/mL): 6%
- dC/dT (rate of change in glucose concentration) ([1]; antibiotic 16 μg/mL): 4
- glucose concentration, t = 0 ([1]; antibiotic 16 μg/mL): 142
- glucose concentration, t = 60 ([1]; antibiotic 16 μg/mL): 152
- glucose concentration, t = 120 ([1]; antibiotic 16 μg/mL): 152
- glucose concentration, t = 180 ([1]; antibiotic 16 μg/mL): 141
- glucose concentration, t = 240 ([1]; antibiotic 16 μg/mL): 145
- F = the rate of change in glucose concentration in relation to the reference ([1]; antibiotic 32 μg/mL): 5%
- dC/dT (rate of change in glucose concentration) ([1]; antibiotic 32 μg/mL): 3
- glucose concentration, t = 0 ([1]; antibiotic 32 μg/mL): 146
- glucose concentration, t = 60 ([1]; antibiotic 32 μg/mL): 150
- glucose concentration, t = 120 ([1]; antibiotic 32 μg/mL): 143
- glucose concentration, t = 180 ([1]; antibiotic 32 μg/mL): 142
- glucose concentration, t = 240 ([1]; antibiotic 32 μg/mL): 137
- MIC, EUCAST, range in parentheses [2, 4]: (2-8) ug/mL
- MIC, EUCAST [2, 5]: 4 µg/mL (≈ 9.36 µM)

SMILES: CN[C@H](CC(C)C)C(=O)N[C@H]1C(=O)N[C@@H](CC(N)=O)C(=O)N[C@H]2C(=O)N[C@H]3C(=O)N[C@H](C(=O)N[C@H](C(=O)O)c4cc(O)cc(O)c4-c4cc3ccc4O)[C@H](O)c3ccc(c(Cl)c3)Oc3cc2cc(c3O[C@@H]2O[C@H](CO)[C@@H](O)[C@H](O)[C@H]2O[C@H]2C[C@](C)(N)[C@H](O)[C@H](C)O2)Oc2ccc(cc2Cl)[C@H]1O [Vancomycin, vancomycin]
- F = the rate of change in glucose concentration in relation to the reference ([1]; antibiotic 0.0625 μg/mL): 67%
- dC/dT (rate of change in glucose concentration) ([1]; antibiotic 0.0625 μg/mL): 42
- glucose concentration, t = 60 ([1]; antibiotic 0.0625 μg/mL): 148
- glucose concentration, t = 120 ([1]; antibiotic 0.0625 μg/mL): 144
- glucose concentration, t = 180 ([1]; antibiotic 0.0625 μg/mL): 65
- F = the rate of change in glucose concentration in relation to the reference ([1]; antibiotic 0.125 μg/mL): 71%
- dC/dT (rate of change in glucose concentration) ([1]; antibiotic 0.125 μg/mL): 44
- glucose concentration, t = 60 ([1]; antibiotic 0.125 μg/mL): 153
- glucose concentration, t = 120 ([1]; antibiotic 0.125 μg/mL): 154
- glucose concentration, t = 180 ([1]; antibiotic 0.125 μg/mL): 65
- F = the rate of change in glucose concentration in relation to the reference ([1]; antibiotic 0.25 μg/mL): 68%
- dC/dT (rate of change in glucose concentration) ([1]; antibiotic 0.25 μg/mL): 42
- glucose concentration, t = 60 ([1]; antibiotic 0.25 μg/mL): 150
- glucose concentration, t = 120 ([1]; antibiotic 0.25 μg/mL): 145
- glucose concentration, t = 180 ([1]; antibiotic 0.25 μg/mL): 66
- F = the rate of change in glucose concentration in relation to the reference ([1]; antibiotic 0.5 μg/mL): 65%
- dC/dT (rate of change in glucose concentration) ([1]; antibiotic 0.5 μg/mL): 41
- glucose concentration, t = 60 ([1]; antibiotic 0.5 μg/mL): 149
- glucose concentration, t = 120 ([1]; antibiotic 0.5 μg/mL): 145
- glucose concentration, t = 180 ([1]; antibiotic 0.5 μg/mL): 68
- F = the rate of change in glucose concentration in relation to the reference ([1]; antibiotic 1 μg/mL): 73%
- dC/dT (rate of change in glucose concentration) ([1]; antibiotic 1 μg/mL): 45
- glucose concentration, t = 60 ([1]; antibiotic 1 μg/mL): 155
- glucose concentration, t = 120 ([1]; antibiotic 1 μg/mL): 149
- glucose concentration, t = 180 ([1]; antibiotic 1 μg/mL): 65
- F = the rate of change in glucose concentration in relation to the reference ([1]; antibiotic 2 μg/mL): 65%
- dC/dT (rate of change in glucose concentration) ([1]; antibiotic 2 μg/mL): 40
- glucose concentration, t = 60 ([1]; antibiotic 2 μg/mL): 147
- glucose concentration, t = 120 ([1]; antibiotic 2 μg/mL): 151
- glucose concentration, t = 180 ([1]; antibiotic 2 μg/mL): 67
- F = the rate of change in glucose concentration in relation to the reference ([1]; antibiotic 4 μg/mL): 69%
- dC/dT (rate of change in glucose concentration) ([1]; antibiotic 4 μg/mL): 43
- glucose concentration, t = 60 ([1]; antibiotic 4 μg/mL): 147
- glucose concentration, t = 120 ([1]; antibiotic 4 μg/mL): 145
- glucose concentration, t = 180 ([1]; antibiotic 4 μg/mL): 61
- F = the rate of change in glucose concentration in relation to the reference ([1]; antibiotic 8 μg/mL): 87%
- dC/dT (rate of change in glucose concentration) ([1]; antibiotic 8 μg/mL): 54
- glucose concentration, t = 60 ([1]; antibiotic 8 μg/mL): 159
- glucose concentration, t = 120 ([1]; antibiotic 8 μg/mL): 147
- glucose concentration, t = 180 ([1]; antibiotic 8 μg/mL): 51
- MIC, EUCAST, range in parentheses [3, 4]: (1-4) ug/mL
- MIC, EUCAST [3, 5]: 2 µg/mL (≈ 1.38 µM)
